{"source": "patent EP4669337B1", "about": "“AGENTS USEFUL FOR THE PREVENTION OR TREATMENT OF ALLERGIC & INFLAMMATORY DISORDERS” (ATOPIA THERAPEUTICS SA, priority 2023, dated 2025)", "test_system": "engineered human embryonic kidney (HEK-293) TGF-β reporter cells", "assay": "HEK-Blue hTGFβ reporter cell assay (Smad-inducible SEAP, optical density at 650 nm)", "format": "cell-based", "settings": "20 µl of a 3µM inhibitor solution in 200 µl total volume, added 1 hour before the test compound; SEQ ID NO:31 at 6.25-150 µg/ml; overnight incubation", "experimental": "Polypeptides of the invention have been tested in the cells above in order to determine cell-surface receptors through which they signal and thereby induce immunotolerance. For this purpose, a peptide of the invention of SEQ ID NO:31 was administered to commercial engineered human embryonic kidney (HEK-293) TGF-β reporter cells that induce the production of Smad-inducible secreted embryonic alkaline phosphatase (SEAP) when human TGF-β triggers a signaling cascade leading to the formation of a Smad3/Smad4 complex which can be monitored by optical density at 650 nm as follows.\nIn a 96-well plate (200 µl total volume), 20 µl of a solution containing 3µM of the inhibitor LY-364947 in medium, or medium alone, are placed in a well, followed by the addition 160 µl of the HEK-Blue hTGFβ cell suspension. After 1 hour incubation, 20 µl of the test compound or the positive control are added to the wells. […] SEAP activity is assayed from the supernatant of HEK-Blue hTGFb cell by reading the optical density at 650 nm using a spectrophotometer after 3 hours incubation at 37°C with Quanti-blue, a SEAP detection reagent.\nIn this particular case, the formation of the Smad3/Smad4 complex (illustrated by the measured OD650 as shown on Figure 8) was induced by the presence of SEQ ID NO:31 at the following concentrations: 6.25, 12.5, 25, 50, 75, 100, 125, and 150 µg/ml. […]", "data": [{"smiles": "c1ccc(-c2nn3c(c2-c2ccnc4cc(OCCN5CCOCC5)ccc24)CCC3)nc1", "note": "[LY2109761]", "values": [{"measurement": "Smad3/Smad4 signaling cascade induced by SEQ ID NO:31 (SEAP, OD650)", "result": "antagonized"}]}]}
